Seven compounds from ChEMBL document CHEMBL3232984, “Synthesis and tripanocidal activity of ferrocenyl and benzyl diamines against Trypanosoma brucei and Trypanosoma cruzi” (Bioorg Med Chem Lett, 2014) can be followed below.

Series [1] is described as follows: Safety index, ratio of IC50 for human HepG2 cells to IC50 for epimastigote stage of Trypanosoma cruzi Y. The format is toxicity, cell-based. The note with it: HepG2 cells versus epimastigote stage of Trypanosoma cruzi Y, read-out: Ratio IC50.
Series [2] is described as follows: Safety index, ratio of IC50 for human HepG2 cells to IC50 for procyclic stage of Trypanosoma brucei 427. The format is toxicity, cell-based. The note with it: HepG2 cells versus procyclic stage of Trypanosoma brucei 427, read-out: Ratio IC50.
For a further series, the system named is HepG2. Briefly: Cytotoxicity against human HepG2 cells by MTT assay. In kind it is cell-based. For orientation: Formazan colour is commonly taken as a measure of viable cells.
Series [3] is described as follows: Safety index, ratio of IC50 for human HepG2 cells to IC50 for […] 29-13. The format is toxicity, cell-based. The note with it: read-out: Ratio IC50.
In the next series the test system is Trypanosoma cruzi. Briefly: Antimicrobial activity against epimastigote stage of Trypanosoma cruzi Y after 72 hrs by MTT assay. In kind it is functional, organism-based.
The test system of series [4] is Trypanosoma brucei. Briefly: Antimicrobial activity against […] 29-13 after 24 hrs by MTT assay. The format is functional, organism-based. As to conditions: 29-13, 24 h.
The test system of series [5] is Trypanosoma brucei. The series is described as follows: Antimicrobial activity against procyclic stage of Trypanosoma brucei 427 after 24 hrs by MTT assay. The format is functional, organism-based. The note with it: Trypanosoma brucei, 427, 24 h.

Molecules are shown by their SMILES.

Broadly, the IC50 is the concentration that inhibits the measured activity by half. The low end stands for higher potency, the high end for lower potency. Consider `Cl.Cl.c1ccc(CNCCNCc2ccccc2)cc1`, for which the values for the selectivity ratio in series [1], in series [2] and in series [3] were 1.4, 20.2 and 22.4, respectively. In addition, the IC50 in the series with HepG2 amounted to 224 µM; in the series on Trypanosoma cruzi, 160 µM; in the series with Trypanosoma brucei [4], 9.99 µM; in the series on Trypanosoma brucei [5], 11.1 µM.

`COc1ccc(CNCCNCc2ccc(OC)cc2)cc1`: the selectivity ratio in series [1] worked out at 90.9; in series [2], 120; in series [3] it was 115. Besides, the IC50 in the series on HepG2 is 991 µM; in the series with Trypanosoma cruzi, 10.9 µM; in the series on Trypanosoma brucei [4], 8.63 µM; in the series on Trypanosoma brucei [5] it was 8.25 µM.

In the case of `Oc1ccccc1CNCCNCc1ccccc1O`, the selectivity ratio in series [1] was 1.36; in series [2] it was 32.1; in series [3] it was 28.7. The half-maximal inhibitory concentration (IC50) with HepG2 was 148 µM; in the series on Trypanosoma cruzi, 109 µM; in the series with Trypanosoma brucei [4] it was 5.16 µM; in the series on Trypanosoma brucei [5] it was 4.61 µM.

Turning to `Clc1ccc(CNCCNCc2ccc(Cl)cc2Cl)c(Cl)c1`, the selectivity ratio in series [1] is 5.45; in series [2], 22.7; in series [3] it was 16.7. Also, the IC50 came to 281 µM in the series with HepG2, 51.4 µM in the series on Trypanosoma cruzi, 16.8 µM with Trypanosoma brucei [4] and 12.3 µM in the series on Trypanosoma brucei [5].

Regarding `O=[N+]([O-])c1ccc(CNCCNCc2ccc([N+](=O)[O-])cc2)cc1`, the selectivity ratio was found to be 4.84 in series [1], 16.1 in series [2] and 30.7 in series [3]. Further, the IC50 with HepG2 came out at 590 µM; in the series on Trypanosoma cruzi it was 122 µM; with Trypanosoma brucei [4], 19.2 µM; in the series on Trypanosoma brucei [5], 36.6 µM.

Take `O=C(Cn1ccnc1[N+](=O)[O-])NCc1ccccc1` [BENZNIDAZOLE]: the selectivity ratio in series [1] was 62.5; in series [2] it was 10.2; in series [3], 14.2. Moreover, the IC50 in the series with HepG2 was found to be 2130 µM; in the series on Trypanosoma cruzi, 34 µM; in the series on Trypanosoma brucei [4] it was 150 µM; in the series on Trypanosoma brucei [5], 208 µM.

With `N=C(N)c1ccc(OCCCCCOc2ccc(C(=N)N)cc2)cc1` [PENTAMIDINE], the selectivity ratio turned out to be 34.9 in series [1], 24.8 in series [2] and 24.8 in series [3]. Besides, the half-inhibitory concentration (IC50) in the series with HepG2 stood at 160 µM; in the series with Trypanosoma cruzi, 4.58 µM; in the series with Trypanosoma brucei [4], 6.43 µM; with Trypanosoma brucei [5], 6.43 µM.
